Like-named read-outs stand apart in the source and are kept apart here.
How the values were obtained:
[1] = molecular target: Tlp3^LBD D196A (Campylobacter jejuni, UniProt Q0P864, D196A); experiment: biochemical
[2] = molecular target: Tlp3 (Campylobacter jejuni, UniProt Q0P864); experiment: Glycan/small molecule arrays with Tlp3; conditions: yes/no binding
Procedure: (§1) Glycan (>400 monosaccharides or complex glycans) and small molecule arrays containing amino acids and salts were performed as described previously by Day et al. ([67]). Briefly, 1 μg of purified recombinant protein was complexed with anti-His antibody (Cell Signaling Technology) and rabbit anti-mouse/goat anti-rabbit Alexa 555-IgG (Thermo Scientific) at a molar ratio of 1:0.5:0.25 and then incubated on the array for […] in phosphate-buffered saline (PBS). The array slides were scanned at 488/520 nm and analyzed using InnoScan 1100 with MAPIX software. All arrays were performed in triplicate with a total of 12 data points for each glycan tested; the complete data set and MIRAGE (i.e., minimum information regarding a glycomics experiment) results are shown in Tables S3 and S8.
(§2) Table S8 - Supplementary glycan microarray document based on M IRAGE guidelines. D O I:
(§3) Classification Guidelines
(§4) 1. Sample: Glycan Binding Sample
(§5) Origin: Helicobacter pylori SS1; produced as a recombinant His - tagged protein in E.
(§6) The preparation of Tlp2,3, and 4 is explained in the Materials and Methods section:
(§7) Expression and purification of the periplasmic domain of Tlp2,3, and 4.
(§8) Sample Sample is a His Tagged protein containing only the periplasmic receptor domain of the modifications full length Tlp2,3, and 4transmembrane protein.
(§9) Please see Materials and Methods: Tlps 2/3/4 bind to a range of ligands, including […]
(§10) Proteins were complexed with mouse anti- his antibody, with secondary and tertiary AlexaFluor555 antibodies (rabbit anti-mouse, goat anti-rabbit) at a molar ratio of 4:2:1.
(§11) The protein/antibody complex was incubated on ice for 10 mins prior to placing on the Assay protocol array. Arrays were performed with 1 µg of complexed protein incubated on the array for 20 min. Arrays were then washed 3 times in Array PBS (PBS + 2mM MgCl2 + 2mM CaCl2) then dried by centrifugation for 3 min at 300 x g . Scanning was performed us ing an Innopsys InnoScan 1100AL and analyzed using Mapix (Innopsys). Yes/no binding was determined by six positive replicate spots in three replicate experiments. Positive […]
(§12) Glycan Glycans in this study are listed in Table S2 and is a published library in doi:
(§13) Glycans were prepared in one of two ways for printing:
(§14) Glycan 1. Glycans (with IDs in number/letter format; e.g. 1A, 4C, 7K) were sourced modifications commercially from Dextra Laboratories, Elicityl and Carbosythn and were made into glycoamines using the protocol published in Day et al 2009 (doi:
(§15) Glycan arrays: We only use glycan arrays as a yes/no binding tool. Due to this we look only at binding that is unambiguously above background vs lack of binding above background. Average background + 3x standard deviation of the background of 20 sets of 4 spots of DMF:DMSO only spots is applied to determine if binding observed is […]
(§16) Only spots with values equal to or greater than this value were considered as binding from data of any tested slide. These values are slide […]
(§17) Data Small molecule arrays: We only use amino acid arrays as a yes/no binding tool. Due interpretation to this we look only at binding that is unambiguously above background vs lack of binding above background. Average background + 3x standard deviation of the background of 6 spots of PBS + 2% glycerol only spots is applied to determine if […]
(§18) Only spots with values equal to or greater than this value were considered as binding from data of any tested slide. These values are slide dependent. […]

[3] = molecular target: Tlp3^LBD D169A (Campylobacter jejuni, UniProt Q0P864, D169A); experiment: biochemical
[4] = test system: WT Tlp3^LBD; experiment: SPR competition assay (A-B-A inject); format: binding, Campylobacter jejuni; conditions: 15 seconds after injection-B; glucose 300 µM, fucose 300 μM, malic acid 200 μM
Procedure: . Competition A-B-A analyses determine the specificity of the potential ligand-binding site preferences of WT Tlp3^LBD. The bound protein is saturated with the first analyte (A), followed by the introduction of a second analyte (B); the assay is designed to show whether a cumulative response is observed after the second analyte (B) is added. A cumulative response indicates two independent binding sites, whereas the lack of a cumulative response indicates a single site where ligands compete for binding, i.e., when analyte A occupies a ligand binding site, analyte B cannot bind. […] All response data were normalized to a 100-Da molecular weight for each analyte, allowing direct comparison of the responses. Both actual RU values and theoretical values are recorded for comparison.
Figure S6. […] A) Injections are […]
at 300 μM for 60 seconds). Final responses units (RU) of injections are recorded (indicated by dashed vertical […]
81 at 15 s econds after injection- B and l fu cose […]
and fucose were compet ed was 4.4 RU ± 0.46. As this value sits be low 5 RU, it indicates direct competition for […]
Final respons es units (RU) of injections ar e re cor ded (indicated […]
As this value sits between
5.07- 13.5 RU, it indicates direct competition for the same site with glucos e replacing some of the bound malic acid during the 60 second injection- B.

[5] = molecular target: Tlp4 (Campylobacter jejuni, UniProt Q0PBP3); format: binding; conditions: yes/no binding
Procedure: as §1, §2, §3, §4, §5, §6, §7, §8, §9, §10, §11, §12, §13, §14, §15, §16, §17, §18

[6] = molecular target: Tlp2 (Campylobacter jejuni, UniProt Q0PBZ3); format: binding; conditions: yes/no binding
Procedure: as §1, §2, §3, §4, §5, §6, §7, §8, §9, §10, §11, §12, §13, §14, §15, §16, §17, §18

[7] = test system: Δtlp2,3 mutant; format: cell-based; conditions: P < 0.05
[8] = test system: Tlp3; parameters: method as in PMID 24391495; conditions: cited from earlier work
[9] = test system: Tlp2; format: cell-based, C. jejuni 11168-O; conditions: for chemotactic response via Tlp2: nutrient-depleted chemotaxis assay
Procedure: (§19) The biological relevance of the binding specificities of the Tlp2,3,4 cluster was assessed by examining chemotactic responses of C. jejuni 11168-O tlp2, tlp3, and tlp4 wild-type (WT) and mutant strains using a nutrient-depleted chemotaxis assay. All ligands, with the exception of lysine and cysteine, interacted with Tlp2 and Tlp4 as attractants (Table 1), showing an ~1- to ~2-log decrease (P < 0.05) in migration toward the ligand compared to the WT strain.
(§20) Chemotaxis assays—the nutrient-depleted chemotaxis assay and the modified hard agar plug assay (tHAP)—were performed as previously described ([11], [34]). The chemotactic responses of all isogenic strains were compared to that of the C. jejuni 11168-O wild-type strain to distinguish between chemoattractants and chemorepellents. For the nutrient-depleted chemotaxis and modified hard agar plug (tHAP) assays, all differences were calculated as changes on a log10 scale. Controls were provided by using nonmotile (C. jejuni 81116 flaAB) and nonchemotactic (C. jejuni NCTC 11168 cheY) mutants ([69]) and mucin as negative and positive controls ([10]).

[10] = test system: Tlp3; format: cell-based, C. jejuni 11168-O; conditions: for Tlp3 CR (chemoresponse): chemotaxis of mutant compared to WT strain
Procedure: as §19, §20

[11] = test system: Tlp4; format: cell-based, C. jejuni 11168-O; conditions: nutrient-depleted chemotaxis assay
Procedure: as §19, §20

Chain of Tlp3^LBD D169A (Q0P864 41-290 D169A): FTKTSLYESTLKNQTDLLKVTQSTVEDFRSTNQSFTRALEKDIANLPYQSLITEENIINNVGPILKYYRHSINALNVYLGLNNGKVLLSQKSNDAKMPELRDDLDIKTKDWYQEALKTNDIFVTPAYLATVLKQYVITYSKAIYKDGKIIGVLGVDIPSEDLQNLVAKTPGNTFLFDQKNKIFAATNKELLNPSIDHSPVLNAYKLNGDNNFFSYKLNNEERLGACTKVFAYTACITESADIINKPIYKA
Chain of Tlp3 (Campylobacter jejuni, UniProt Q0P864) (Q0P864 entry or part of it): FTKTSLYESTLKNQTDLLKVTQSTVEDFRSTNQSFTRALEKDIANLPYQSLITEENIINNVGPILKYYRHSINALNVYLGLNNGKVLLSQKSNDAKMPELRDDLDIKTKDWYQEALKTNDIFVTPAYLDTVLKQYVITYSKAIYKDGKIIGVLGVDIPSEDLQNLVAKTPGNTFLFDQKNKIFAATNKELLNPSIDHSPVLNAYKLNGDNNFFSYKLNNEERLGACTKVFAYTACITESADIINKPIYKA
Chain of Tlp2 (Campylobacter jejuni, UniProt Q0PBZ3) (Q0PBZ3 entry or part of it): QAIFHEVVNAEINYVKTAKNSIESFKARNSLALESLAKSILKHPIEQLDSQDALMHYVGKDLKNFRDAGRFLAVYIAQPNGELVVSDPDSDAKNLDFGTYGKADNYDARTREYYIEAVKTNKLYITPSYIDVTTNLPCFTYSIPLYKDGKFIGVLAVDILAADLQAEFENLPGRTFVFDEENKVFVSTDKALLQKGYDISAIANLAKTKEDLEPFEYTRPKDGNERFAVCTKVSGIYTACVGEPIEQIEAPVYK
Chain of Tlp3^LBD D196A (Q0P864 41-290 D196A): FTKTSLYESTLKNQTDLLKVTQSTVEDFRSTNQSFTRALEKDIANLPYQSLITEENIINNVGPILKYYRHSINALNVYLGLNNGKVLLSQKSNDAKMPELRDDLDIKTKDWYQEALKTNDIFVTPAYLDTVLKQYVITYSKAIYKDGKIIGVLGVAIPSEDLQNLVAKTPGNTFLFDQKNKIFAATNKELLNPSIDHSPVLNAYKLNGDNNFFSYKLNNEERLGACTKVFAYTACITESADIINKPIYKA
Chain of Tlp4 (Campylobacter jejuni, UniProt Q0PBP3) (Q0PBP3 entry or part of it): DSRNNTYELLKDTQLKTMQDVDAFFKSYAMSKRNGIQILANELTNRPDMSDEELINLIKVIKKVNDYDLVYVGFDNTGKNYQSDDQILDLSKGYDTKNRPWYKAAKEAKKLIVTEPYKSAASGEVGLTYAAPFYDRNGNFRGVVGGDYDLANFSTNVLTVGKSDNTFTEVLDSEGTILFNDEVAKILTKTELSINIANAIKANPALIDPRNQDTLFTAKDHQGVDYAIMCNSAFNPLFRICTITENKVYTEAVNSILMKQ

| SMILES | Kd [1] | binding to Tlp3 on glycan/small molecule array [2] | Kd [3] | SPR response of single analyte [4] | binding to Tlp4 on glycan/small molecule array [5] | binding to Tlp2 on glycan/small molecule array [6] | cell migration toward ligand increased, Δtlp2,3 mutant [7] | chemotactic response via Tlp3 [8] | Tlp2 CR (chemoresponse) ([9]; chemotaxis of mutant compared to WT strain) | increase in migration (Tlp2) ([9]; compared to the WT strain, P < 0.05) | chemotactic response via Tlp2 [9] | Tlp3 CR (chemoresponse) [10] | chemotactic response via Tlp4 [11] | chemotactic response via Tlp3 ([10]; nutrient-depleted chemotaxis assay) |
| --- | --- | --- | --- | --- | --- | --- | --- | --- | --- | --- | --- | --- | --- | --- |
| C[C@H](O)[C@@H](O)[C@@H](O)[C@H](O)C=O [Fucose] | 41.9 ± 13.2 µM | interacted | 50 ± 17.6 µM | 9.86 RU | interacted | interacted | – | – | – | – | – | – | – | – |
| NCCCC[C@H](N)C(=O)O [Lysine] | 16.1 ± 9.1 µM | bind specifically | 29.2 ± 4.9 µM | – | bound | bound | 1.8 log | repellent | R | 1.4 log | repellent | R | attractant | – |
| CC(=O)N[C@H]1[C@H]([C@H](O)[C@H](O)CO)OC(O)(C(=O)O)C[C@@H]1O (stereo partly drawn) [Sialic acid] | 36.8 ± 3 µM | interacted | 25.2 ± 8.5 µM | – | interacted | interacted | – | – | – | – | attractants | R | attractants | repellents |

From publication PMC9769880, “Diverse Sensory Repertoire of Paralogous Chemoreceptors Tlp2, Tlp3, and Tlp4 in Campylobacter jejuni” (Microbiology Spectrum, 2022)
